For the assay, the target named is T1, Nav 1.7 (Homo sapiens, UniProt Q15858).
T1 construct: expressed in transfected cells
Put plainly: Whole-cell voltage clamp electrophysiology, automated patch clamp (marker c in Table of Examples). The following applies: read-out: Nav 1.7 activity. It is filed as cell-based. A digest of the protocol: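 A voltage protocol weighted toward inactivated-state block was used to test compounds on stably expressing cells, with pulses from −65 mV holding to −10 mV test and −100 mV. Currents came from whole-cell automated patch-clamp recordings, either IonWorks Quattro or other automated instruments, usually in perforated-patch mode.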
In general terms: In patch-clamp work, channel activity is measured electrically.

[1] abbreviates: marker c = Automated patch clamp data.
The mark [2] stands for this setting: marker c: Automated patch clamp data.

Read-outs that look alike come from different tables or passages of the source.

T1 sequence (Q15858 whole entry): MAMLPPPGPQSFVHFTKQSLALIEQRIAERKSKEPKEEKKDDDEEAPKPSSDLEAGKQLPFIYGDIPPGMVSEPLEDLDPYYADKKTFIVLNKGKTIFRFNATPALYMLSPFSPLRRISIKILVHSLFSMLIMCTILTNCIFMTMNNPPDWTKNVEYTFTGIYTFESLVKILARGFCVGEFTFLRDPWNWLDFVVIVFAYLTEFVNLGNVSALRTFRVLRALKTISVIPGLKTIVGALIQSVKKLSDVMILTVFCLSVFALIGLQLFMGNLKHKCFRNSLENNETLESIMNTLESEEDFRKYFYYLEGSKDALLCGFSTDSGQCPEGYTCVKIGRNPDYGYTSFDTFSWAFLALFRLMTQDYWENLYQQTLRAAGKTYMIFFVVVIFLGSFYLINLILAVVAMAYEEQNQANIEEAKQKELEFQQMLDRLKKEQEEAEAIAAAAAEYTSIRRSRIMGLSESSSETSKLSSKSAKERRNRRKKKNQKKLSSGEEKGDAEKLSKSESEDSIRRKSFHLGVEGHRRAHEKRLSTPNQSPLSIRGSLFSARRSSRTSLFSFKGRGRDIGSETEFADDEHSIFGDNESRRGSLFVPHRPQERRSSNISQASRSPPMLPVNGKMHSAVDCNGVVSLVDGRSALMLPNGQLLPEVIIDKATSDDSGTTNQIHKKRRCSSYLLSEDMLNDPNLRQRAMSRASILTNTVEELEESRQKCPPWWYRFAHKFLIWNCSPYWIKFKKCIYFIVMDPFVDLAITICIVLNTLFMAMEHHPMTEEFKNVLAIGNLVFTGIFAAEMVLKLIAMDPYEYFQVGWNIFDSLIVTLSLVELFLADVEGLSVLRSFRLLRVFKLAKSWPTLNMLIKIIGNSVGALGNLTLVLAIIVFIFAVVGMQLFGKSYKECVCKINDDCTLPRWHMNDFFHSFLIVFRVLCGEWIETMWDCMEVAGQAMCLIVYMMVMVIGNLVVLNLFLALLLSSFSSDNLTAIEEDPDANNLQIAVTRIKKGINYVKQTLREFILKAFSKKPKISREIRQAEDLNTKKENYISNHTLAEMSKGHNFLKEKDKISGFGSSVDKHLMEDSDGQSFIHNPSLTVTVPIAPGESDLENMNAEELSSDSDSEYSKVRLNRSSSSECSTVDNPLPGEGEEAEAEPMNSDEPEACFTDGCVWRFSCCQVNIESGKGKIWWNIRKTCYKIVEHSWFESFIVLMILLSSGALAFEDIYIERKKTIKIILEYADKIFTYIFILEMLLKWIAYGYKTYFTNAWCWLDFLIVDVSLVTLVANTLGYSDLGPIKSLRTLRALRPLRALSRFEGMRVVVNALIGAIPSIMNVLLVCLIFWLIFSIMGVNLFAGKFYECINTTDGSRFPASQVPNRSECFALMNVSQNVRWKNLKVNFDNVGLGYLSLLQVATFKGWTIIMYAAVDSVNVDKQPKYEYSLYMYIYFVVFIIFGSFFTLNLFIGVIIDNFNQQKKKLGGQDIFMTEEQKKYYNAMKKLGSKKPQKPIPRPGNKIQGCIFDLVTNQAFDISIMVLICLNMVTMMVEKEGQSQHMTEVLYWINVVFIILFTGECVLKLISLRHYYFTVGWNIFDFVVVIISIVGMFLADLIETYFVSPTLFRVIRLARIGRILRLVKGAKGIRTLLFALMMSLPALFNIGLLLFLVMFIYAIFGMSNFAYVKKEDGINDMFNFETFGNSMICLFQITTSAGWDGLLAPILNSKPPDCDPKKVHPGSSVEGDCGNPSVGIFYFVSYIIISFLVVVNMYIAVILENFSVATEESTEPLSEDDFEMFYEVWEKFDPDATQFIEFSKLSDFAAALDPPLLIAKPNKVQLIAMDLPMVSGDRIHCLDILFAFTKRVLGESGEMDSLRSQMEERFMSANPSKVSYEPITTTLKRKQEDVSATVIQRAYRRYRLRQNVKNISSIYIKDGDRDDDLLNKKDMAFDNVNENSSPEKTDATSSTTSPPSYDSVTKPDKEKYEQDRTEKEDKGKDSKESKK

Regarding `Nc1nc(Nc2ccccc2)nc(-c2noc(C(=O)N3CCCC3)n2)n1` [Example 220, 2-N-phenyl-6-{5-[(pyrrolidin-1 - yl)carbonyl]-1,2,4-oxadiazol-3-yl}-1,3,5-triazine-2,4-diamine], under setting [1], the IC50 came out at 833 nM.
Take `Nc1nc(Nc2ccccc2)nc(-c2noc(N3C[C@@H]4[C@@H](COCCC(F)(F)F)[C@@H]4C3)n2)n1` [Example 394, 2-N-phenyl-6-{5-[6-[(3,3,3-trifluoropropoxy)methyl]-3-azabicyclo[3.1.0]hexan-3-yl]-1,2,4-oxadiazol-3-yl}-1,3,5-triazine-2,4-diamine]: under setting [1], the IC50 is 664 nM.
For the compound `Cc1ccc(-c2nc(-c3nc(N)nc(N(C)c4ccccc4)n3)no2)s1` [Example 62, N-Methyl-6-[5-(5-methyl-thiophen-2-yl)-[1,2,4]oxadiazol-3-yl]-N-phenyl-[1,3,5]triazine-2,4-diamine], the IC50 under setting [2] amounted to 1100 nM.
As for `CN(c1ccccc1)c1nc(N)nc(-c2noc(-c3ccc(N4CCCCC4)nc3)n2)n1` [Example 473, 2-N-methyl-2-N-phenyl-6-{5-[6-(piperidin-1-yl)pyridin-3-yl]-1,2,4-oxadiazol-3-yl}-1,3,5-triazine-2,4-diamine], the IC50 under setting [1] amounted to 310 nM.
`COc1cccc(-c2nc(-c3nc(N)nc(N(C)c4cccc(F)c4)n3)no2)c1` [Example 85, N-(3-Fluoro-phenyl)-6-[5-(3-methoxy-phenyl)-[1,2,4]oxadiazol-3-yl]-N-methyl-[1,3,5]triazine-2,4-diamine]: the IC50 under setting [2] came to 1270 nM.
In the case of `Cc1cc(C)c(-c2nc(-c3nc(N)nc(N(C)c4ccccc4)n3)no2)cn1` [Example 154, 6-[5-(4,6-dimethylpyridin-3-yl)-1,2,4-oxadiazol-3-yl]-2-N-methyl-2-N-phenyl-1,3,5-triazine-2,4-diamine], the IC50 under setting [2] amounted to 5060 nM.
As to `Nc1nc(Nc2ccccc2)nc(-c2noc(N3C[C@@H]4[C@@H](COCC(F)(F)F)[C@@H]4C3)n2)n1` [Example 390, 2-N-phenyl-6-{5-[6-[(2,2,2-trifluoroethoxy)methyl]-3-azabicyclo[3.1.0]hexan-3-yl]-1,2,4-oxadiazol-3-yl}-1,3,5-triazine-2,4-diamine], the IC50 under setting [1] was found to be 702 nM.
With `CN(c1ccccc1)c1nc(N)nc(-c2noc(N3CC(COc4ccccc4)C3)n2)n1` [Example 495, N-Methyl-6-[5-(3-phenoxymethylazetidin-1-yl)-[1,2,4]oxadiazol-3-yl]-N-phenyl-[1,3,5]triazine-2,4-diamine], under setting [1], the IC50 turned out to be 1910 nM.
Still for that read-out and setting: to `CN(c1ccccc1)c1nc(N)nc(-c2noc(-c3ncccc3C(=O)NC3CC3)n2)n1` [Example 376, 2-(3-{4-amino-6-[methyl(phenyl)amino]-1,3,5-triazin-2-yl}-1,2,4-oxadiazol-5-yl)-N-cyclopropylpyridine-3-carboxamide] belongs 9500 nM; to `CN(c1ccccc1)c1nc(N)nc(-c2noc(N3CC(Oc4ccccn4)C3)n2)n1` [Example 499, 2-N-methyl-2-N-phenyl-6-{5-[3-(pyridin-2-yloxy)azetidin-1-yl]-1,2,4-oxadiazol-3-yl}-1,3,5-triazine-2,4-diamine], 4590 nM.
For the compound `CN(c1ccccc1)c1nc(N)nc(-c2noc(-c3ncccc3N)n2)n1` [Example 51, 6-[5-(3-Amino-pyridin-2-yl)-[1,2,4]oxadiazol-3-yl]-N-methyl-N-phenyl-[1,3,5]triazine-2,4-diamine], the IC50 under setting [2] came out at 3470 nM.
For `Nc1nc(Nc2ccccc2)nc(-c2noc(C(=O)NC3Cc4ccccc4C3)n2)n1` [Example 229, 3-[4-amino-6-(phenylamino)-1,3,5-triazin-2-yl]-N-(2,3-dihydro-1H-inden-2-yl)-1,2,4-oxadiazole-5-carboxamide], the IC50 under setting [1] turned out to be 9190 nM.
Same read-out and setting: to `Nc1nc(Nc2ccccc2)nc(-c2noc(N3C[C@@H]4[C@@H](COC5CCCC5)[C@@H]4C3)n2)n1` [Example 400, 6-{5-[6-[(cyclopentyloxy)methyl]-3-azabicyclo[3.1.0]hexan-3-yl]-1,2,4-oxadiazol-3-yl}-2-N-phenyl-1,3,5-triazine-2,4-diamine] belongs 292 nM.
The same measure, in the same setting: then `Nc1nc(Nc2cccc(F)c2)nc(-c2noc(C(=O)N3CCCC3)n2)n1` [Example 227, 2-N-(3-fluorophenyl)-6-{5-[(pyrrolidin-1-yl)carbonyl]-1,2,4-oxadiazol-3-yl}-1,3,5-triazine-2,4-diamine], with 241 nM.
The same measure, in the same setting: then `COCCN(c1ccccc1)c1nc(N)nc(-c2noc(-c3ccc(COCC(F)(F)F)nc3)n2)n1` [Example 312, 2-N-(2-Methoxyethyl)-2-N-phenyl-6-(5-{6-[(2,2,2-trifluoroethoxy)methyl]pyridin-3-yl}-1,2,4-oxadiazol-3-yl)-1,3,5-triazine-2,4-diamine], with 139 nM.
Consider `COCCNc1nc(Nc2ccccc2)nc(-c2noc(-c3ccc(OCC(F)(F)F)nc3)n2)n1` [Example 157, 2-N-(2-methoxyethyl)-4-N-phenyl-6-{5-[6-(2,2,2-trifluoroethoxy)pyridin-3-yl]-1,2,4-oxadiazol-3-yl}-1,3,5-triazine-2,4-diamine], for which the IC50 under setting [2] is 477 nM.
`CC(C)S(=O)(=O)N1CCC(c2nc(-c3nc(N)nc(Nc4ccccc4)n3)no2)CC1` [Example 515, 2-N-phenyl-6-{5-[1-(propane-2-sulfonyl)piperidin-4-yl]-1,2,4-oxadiazol-3-yl}-1,3,5-triazine-2,4-diamine]: under setting [1], the IC50 came out at 797 nM.
Still for that read-out and setting: then `CN(c1ccccc1)c1nc(N)nc(-c2noc(-c3ccc(OCC#N)nc3)n2)n1` [Example 330, 2-{[5-(3-{4-Amino-6-[methyl(phenyl)amino]-1,3,5-triazin-2-yl}-1,2,4-oxadiazol-5-yl)pyridin-2-yl]oxy}acetonitrile], with 9210 nM.
`Nc1nc(Nc2cccc(F)c2)nc(-c2noc(-c3ccc(OCC4CC4)nc3)n2)n1` [Example 136, 6-{5-[6-(cyclopropylmethoxy)pyridin-3-yl]-1,2,4-oxadiazol-3-yl}-2-N-(3-fluorophenyl)-1,3,5-triazine-2,4-diamine]: the IC50 under setting [2] came to 65 nM.
The same measure, in the same setting: then `CN(c1ccccc1)c1nc(N)nc(-c2noc(C3CCN(S(=O)(=O)c4ccccc4)CC3)n2)n1` [Example 172, 6-{5-[1-(benzenesulfonyl)piperidin-4-yl]-1,2,4-oxadiazol-3-yl}-2-N-methyl-2-N-phenyl-1,3,5-triazine-2,4-diamine], with 1080 nM.
As for `CN(c1ccccc1)c1nc(N)nc(-c2noc(-c3ccn(C)n3)n2)n1` [Example 252, 2-N-methyl-6-[5-(1-methyl-1H-pyrazol-3-yl)-1,2,4-oxadiazol-3-yl]-2-N-phenyl-1,3,5-triazine-2,4-diamine], under setting [1], the IC50 turned out to be 2380 nM.
With `COc1ncccc1-c1nc(-c2nc(N)nc(N(C)c3ccccc3)n2)no1` [Example 76, 6-[5-(2-Methoxy-pyridin-3-yl)-[1,2,4]oxadiazol-3-yl]-N-methyl-N-phenyl-[1,3,5]triazine-2,4-diamine], under setting [2], the IC50 is 925 nM.
For the compound `Nc1nc(Nc2ccccc2)nc(-c2noc(N3CCC(COCC(F)(F)F)CC3)n2)n1` [Example 174, 2-N-Phenyl-6-(5-{4-[(2,2,2-trifluoroethoxy)methyl]piperidin-1-yl}-1,2,4-oxadiazol-3-yl)-1,3,5-triazine-2,4-diamine], under setting [2], the IC50 is 340 nM.
For the compound `Cc1ccc(-c2nc(-c3nc(N)nc(N(C)c4ccccc4)n3)no2)cn1` [Example 283, 2-N-methyl-6-[5-(6-methylpyridin-3-yl)-1,2,4-oxadiazol-3-yl]-2-N-phenyl-1,3,5-triazine-2,4-diamine], the IC50 under setting [1] is 1380 nM.
`CN(c1nc(N)nc(-c2noc(-c3ccc(OCC4CC4)nc3)n2)n1)c1ccccc1F` [Example 134, 6-{5-[6-(cyclopropylmethoxy)pyridin-3-yl]-1,2,4-oxadiazol-3-yl}-2-N-(2-fluorophenyl)-2-N-methyl-1,3,5-triazine-2,4-diamine]: the IC50 under setting [2] was 67 nM.
In the case of `CC(C)CN1CCC(c2nc(-c3nc(N)nc(N(C)c4ccccc4)n3)no2)CC1` [Example 510, 2-N-methyl-6-{5-[1-(2-methylpropyl)piperidin-4-yl]-1,2,4-oxadiazol-3-yl}-2-N-phenyl-1,3,5-triazine-2,4-diamine], the IC50 under setting [1] is 1260 nM.
With `Nc1nc(Nc2cccc(F)c2F)nc(-c2noc(-c3ccc(OCC4CC4)nc3)n2)n1` [Example 139, 6-{5-[6-(cyclopropylmethoxy)pyridin-3-yl]-1,2,4-oxadiazol-3-yl}-2-N-(2,3-difluorophenyl)-1,3,5-triazine-2,4-diamine], the IC50 under setting [2] was determined as 144 nM.
In the case of `CN(c1ccccc1)c1nc(N)nc(-c2noc(N3CCC(OCc4ccccc4)CC3)n2)n1` [Example 338, 6-{5-[4-(benzyloxy)piperidin-1-yl]-1,2,4-oxadiazol-3-yl}-2-N-methyl-2-N-phenyl-1,3,5-triazine-2,4-diamine], the IC50 under setting [1] came out at 597 nM.
As to `CN(c1ccccc1)c1nc(N)nc(-c2noc(-c3ccc(C(=O)N4CCOCC4)s3)n2)n1` [Example 79, (5-{3-[4-Amino-6-(methyl-phenyl-amino)-[1,3,5]triazin-2-yl]-[1,2,4]oxadiazol-5-yl}-thiophen-2-yl)-morpholin-4-yl-methanone], under setting [2], the IC50 was found to be 977 nM.
In the case of `CN(c1ccccc1)c1nc(N)nc(-c2noc(-c3ccc(Cl)nc3)n2)n1` [Example 418, 6-[5-(6-chloropyridin-3-yl)-1,2,4-oxadiazol-3-yl]-2-N-methyl-2-N-phenyl-1,3,5-triazine-2,4-diamine], the IC50 under setting [1] was determined as 1640 nM.
On the same count and under the same terms, then `COc1ccccc1-c1nc(-c2nc(N)nc(Nc3ccccc3)n2)no1` [Example 247, 6-[5-(2-methoxyphenyl)-1,2,4-oxadiazol-3-yl]-2-N-phenyl-1,3,5-triazine-2,4-diamine], with 40 nM; and `CN(c1ccccc1)c1nc(N)nc(-c2noc(N3Cc4cncnc4C3)n2)n1` [Example 323, 2-N-Methyl-2-N-phenyl-6-(5-{5H,6H,7H-pyrrolo[3,4-d]pyrimidin-6-yl}-1,2,4-oxadiazol-3-yl)-1,3,5-triazine-2,4-diamine], with 6450 nM.

For the origin of these results see patent US8895733B2 (Novartis AG, priority 2010, dated 2014).
